What was measured:
[1] = test system: α-synuclein PFF induced PD mice; experiment: Pole test in α-synuclein PFF induced PD mice; type: in vivo
Aβ25-35 induced AD mice [2] = experiment: Y-maze spontaneous alternation in Aβ25-35 induced AD mice; type: in vivo; conditions: orally once daily for 10 days; Example 4 1, 3 and 10 mg/kg, nilotinib 3 mg/kg
Aβ25-35 induced AD mice [3] = experiment: Step-through passive avoidance (STPA) test in Aβ25-35 induced AD mice; type: in vivo; conditions: orally once daily for 10 days; Example 4 1, 3 and 10 mg/kg, nilotinib 3 mg/kg
lipid peroxidation = experiment: Lipid peroxidation in hippocampus homogenates of Aβ25-35 induced AD mice; type: in vivo; conditions: once daily oral dosing of 3 mg/kg and 10 mg/kg
Text: Y-maze test as a behavioral test was used to assess memory function and the willingness of rodents to explore new environments 10 Days after ICV injection of oligomeric Aβ25-35 peptide, the hippocampus was dissected out. And lipid peroxidation level was quantified in the hippocampus homogenates. ICV injection of oligomeric Aβ25-35 peptide induced lipid peroxidation, a marker for oxidative stress. […] (FIG. 7)

[4] = Oral dose pharmacokinetic study in mice

Structure (SMILES) | increased pole climb down time (sec) by α-synuclein PFF injection ([1]; 0.3, 1, 3 and 10 mg/kg orally once daily for 5 months) | deficits of alternation behavior (spatial working memory, Y-maze) (Aβ25-35 induced AD mice [2]) | contextual long-term memory deficits (STPA) (Aβ25-35 induced AD mice [3]) | lipid peroxidation in hippocampus (lipid peroxidation) | PK profile in mice [4] | pole climb down time ([1]; 10 mg/kg orally once daily for 5 months)
Cc1ccncc1-c1ccc2nc(NC(=O)[C@@H]3C[C@@H]3F)sc2c1 [Example 4] | recovered by treatment of Example 4 in a dose-dependent manner | very significantly and fully alleviated | very significantly and fully alleviated | completely inhibited | good PK profiles | –
Cc1cn(-c2cc(NC(=O)c3ccc(C)c(Nc4nccc(-c5cccnc5)n4)c3)cc(C(F)(F)F)c2)cn1 [Nilotinib, nilotinib, reference compound] | – | partially alleviated | – | – | – | slight improvement

Source: patent US10968188B2, “Benzothiazol compounds and methods using the same for treating neurodegenerative disorders” (1ST Biotherapeutics, Inc., priority 2017, dated 2021)
